Laboratory results as given in paper PMC6100082, “Pyridine-Ureas as Potential Anticancer Agents: Synthesis and In Vitro Biological Evaluation” (Molecules : A Journal of Synthetic Chemistry and Natural …, 2018).

How the values were obtained:
Assay type in all cases: cell-based, human
LOX IMVI = experiment: NCI one-dose SRB assay (Melanoma); details: for Growth Percent: 1.00E-5 Molar
Experimental: (§1) The structures of all the newly prepared pyridine-ureas 8a–n were submitted to the National Cancer Institute (NCI) Developmental Therapeutic Program. Eight compounds 8b, 8d, 8e, 8i, 8j and 8l–n were selected to be examined for their in vitro growth inhibitory activity. The anticancer assays were carried out according to the protocol of the Drug Evaluation Branch, NCI, Bethesda. The selected pyridine-ureas were tested at one dose primary anticancer assay against a panel of approximately 58 cancer lines (concentration 10^−5 M). The tested human cancer cell lines emerged from nine different cancer subtypes: leukemia, colon, melanoma, ovarian, lung, CNS, renal, breast and prostate cancers. The sulforhodamine B (SRB) protein assay was adopted to estimate the cell viability and growth. The results were reported as mean-graph of the percentage growth of the treated cells, and presented as percentage growth inhibition (GI%) caused by the test compounds (Table 2).
(§2) The anticancer assays were performed in accordance with the protocol of the Drug Evaluation Branch, NCI, Bethesda. A 48 h drug exposure protocol was used and sulforhodamine B (SRB) protein assay was applied to estimate the cell viability and growth, as reported earlier.

MDA-MB-435 = experiment: NCI one-dose SRB assay (Melanoma); details: for Growth Percent: MDA-MB-435, 1.00E-5 Molar
Experimental: as §1, §2

M14 = experiment: NCI one-dose SRB assay (Melanoma); details: for Growth Percent: M14, 1.00E-5 Molar
Experimental: as §1, §2

SK-MEL-2 = experiment: NCI one-dose SRB assay (Melanoma); details: for Growth Percent: SK-MEL-2, 1.00E-5 Molar
Experimental: as §1, §2

SK-MEL-28 = experiment: NCI one-dose SRB assay (Melanoma); details: for Growth Percent: SK-MEL-28, 1.00E-5 Molar
Experimental: as §1, §2

UACC-257 = experiment: NCI one-dose SRB assay (Melanoma); details: for Growth Percent: UACC-257, 1.00E-5 Molar
Experimental: as §1, §2

SK-MEL-5 = experiment: NCI one-dose SRB assay (Melanoma); details: for Growth Percent: SK-MEL-5, 1.00E-5 Molar
Experimental: as §1, §2

UACC-62 = experiment: NCI one-dose SRB assay (Melanoma); details: for Growth Percent: UACC-62, 1.00E-5 Molar
Experimental: as §1, §2

MALME-3M = experiment: NCI one-dose SRB assay (Melanoma); details: for Growth Percent: 1.00E-5 Molar
Experimental: as §1, §2

EKVX = experiment: NCI one-dose SRB assay (Non-Small Cell Lung Cancer); details: for Growth Percent: 1.00E-5 Molar
Experimental: as §1, §2

NCI-H322M = experiment: as above; details: for Growth Percent: 1.00E-5 Molar
Experimental: as §1, §2

NCI-H522 = experiment: as above; details: for Growth Percent: NCI-H522, 1.00E-5 Molar
Experimental: as §1, §2

NCI-H460 = experiment: as above; details: for Growth Percent: NCI-H460, 1.00E-5 Molar
Experimental: as §1, §2

NCI-H23 = experiment: as above; details: for Growth Percent: NCI-H23, 1.00E-5 Molar
Experimental: as §1, §2

HOP-62 = experiment: as above; details: for Growth Percent: HOP-62, 1.00E-5 Molar
Experimental: as §1, §2

NCI-H226 = experiment: as above; details: for Growth Percent: NCI-H226, 1.00E-5 Molar
Experimental: as §1, §2

A549/ATCC = experiment: as above; details: for Growth Percent: 1.00E-5 Molar
Experimental: as §1, §2

HOP-92 = experiment: as above; details: for Growth Percent: HOP-92, 1.00E-5 Molar
Experimental: as §1, §2

SF-268 = experiment: NCI one-dose SRB assay (CNS Cancer); details: for Growth Percent: SF-268, 1.00E-5 Molar
In short: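 SRB assay, 48 h drug exposure, compound fixed at 10^−5 M; output expressed as % growth inhibition.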

CCRF-CEM = experiment: NCI one-dose SRB assay (Leukemia); details: for Growth Percent: 1.00E-5 Molar
Experimental: as §1, §2

K-562 = experiment: NCI one-dose SRB assay (Leukemia); details: for Growth Percent: K-562, 1.00E-5 Molar
Experimental: as §1, §2

SR = experiment: NCI one-dose SRB assay (Leukemia); details: for Growth Percent: 1.00E-5 Molar
Experimental: as §1, §2

TK-10 = experiment: NCI one-dose SRB assay (Renal Cancer); details: for Growth Percent: TK-10, 1.00E-5 Molar
Experimental: as §1, §2

UO-31 = experiment: NCI one-dose SRB assay (Renal Cancer); details: for Growth Percent: UO-31, 1.00E-5 Molar
Experimental: as §1, §2

786-0 = experiment: NCI one-dose SRB assay (Renal Cancer); details: for Growth Percent: 786-0, 1.00E-5 Molar
Experimental: as §1, §2

A498 = experiment: NCI one-dose SRB assay (Renal Cancer); details: for Growth Percent: A498, 1.00E-5 Molar
Experimental: as §1, §2

SN12C = experiment: NCI one-dose SRB assay (Renal Cancer); details: for Growth Percent: 1.00E-5 Molar
Experimental: as §1, §2

RXF 393 = experiment: NCI one-dose SRB assay (Renal Cancer); details: for Growth Percent: RXF 393, 1.00E-5 Molar
Experimental: as §1, §2

[1] = Homo sapiens, 10 μM, read-out: Percentage growth inhibition (GI%)

1-(4-Chloro-4-(trifluoromethyl)cyclohexa-2,5-dien-1-yl)-3-(6-(3,4-dimethoxyphenyl)-2-methylpyridin-3-yl)urea [Compound 8l]
Percentage growth inhibition (GI%) (LOX IMVI; 10 μM): 22%
Growth Percent (LOX IMVI): 78.57%
Percentage growth inhibition (GI%) (MDA-MB-435; MDA-MB-435, 10 μM): 23%
Growth Percent (MDA-MB-435): 77.84%
Percentage growth inhibition (GI%) (M14; M14, 10 μM): 53%
Growth Percent (M14): 47.02%
Percentage growth inhibition (GI%) (SK-MEL-2; SK-MEL-2, 10 μM): 13%
Growth Percent (SK-MEL-2): 87.87%
Percentage growth inhibition (GI%) (SK-MEL-28; SK-MEL-28, 10 μM): 27%
Growth Percent (SK-MEL-28): 73.58%
Percentage growth inhibition (GI%) (UACC-257; UACC-257, 10 μM): 44%
Growth Percent (UACC-257): 56.26%
Percentage growth inhibition (GI%) (SK-MEL-5; SK-MEL-5, 10 μM): 37%
Growth Percent (SK-MEL-5): 63.85%
Percentage growth inhibition (GI%) (UACC-62; UACC-62, 10 μM): 23%
Growth Percent (UACC-62): 77.31%
Percentage growth inhibition (GI%) (MALME-3M; 10 μM): 10%
Growth Percent (MALME-3M): 90.89%
Percentage growth inhibition (GI%) (EKVX; 10 μM): 33%
Growth Percent (EKVX): 67.30%
Percentage growth inhibition (GI%) (NCI-H322M; 10 μM): 13%
Growth Percent (NCI-H322M): 87.05%
Percentage growth inhibition (GI%) (NCI-H522; NCI-H522, 10 μM): 57%
Growth Percent (NCI-H522): 43.02%
Percentage growth inhibition (GI%) (NCI-H460; NCI-H460, 10 μM): 48%
Growth Percent (NCI-H460): 52.19%
Percentage growth inhibition (GI%) (NCI-H23; NCI-H23, 10 μM): 29%
Growth Percent (NCI-H23): 71.36%
Percentage growth inhibition (GI%) (HOP-62; HOP-62, 10 μM): 23%
Growth Percent (HOP-62): 77.10%
Percentage growth inhibition (GI%) (NCI-H226; NCI-H226, 10 μM): 28%
Growth Percent (NCI-H226): 72.73%
Percentage growth inhibition (GI%) (A549/ATCC; 10 μM): 56%
Growth Percent (A549/ATCC): 44.62%
Percentage growth inhibition (GI%) (HOP-92; HOP-92, 10 μM): 30%
Growth Percent (HOP-92): 70.53%
Percentage growth inhibition (GI%) (SF-268; SF-268, 10 μM): 25%
Growth Percent (SF-268): 75.77%
Percentage growth inhibition (GI%) (CCRF-CEM; 10 μM): 45%
Growth Percent (CCRF-CEM): 55.04%
Percentage growth inhibition (GI%) (K-562; K-562, 10 μM): 51%
Growth Percent (K-562): 49.47%
Percentage growth inhibition (GI%) (SR; 10 μM): 40%
Growth Percent (SR): 60.09%
Percentage growth inhibition (GI%) (TK-10; TK-10, 10 μM): 12%
Growth Percent (TK-10): 88.19%
Percentage growth inhibition (GI%) (UO-31; UO-31, 10 μM): 28%
Growth Percent (UO-31): 72.37%
Percentage growth inhibition (GI%) (786-0; 786-0, 10 μM): 25%
Growth Percent (786-0): 75.10%
Percentage growth inhibition (GI%) (A498; A498, 10 μM): 43%
Growth Percent (A498): 57.69%
Percentage growth inhibition (GI%) (SN12C; 10 μM): 22%
Growth Percent (SN12C): 78.52%
Percentage growth inhibition (GI%) (RXF 393; RXF 393, 10 μM): 28%
Growth Percent (RXF 393): 72.65%

COc1ccc(-c2ccc(NC(=O)Nc3cccc(C(F)(F)F)c3)c(C)n2)cc1 [Compound 8b, 1-(6-(4-Methoxyphenyl)-2-methylpyridin-3-yl)-3-(3-(trifluoromethyl)phenyl) Urea]
Growth Percent (LOX IMVI): 47.72%
inhibition at 10 µM (LOX IMVI; [1]): 53%
inhibition at 10 µM (MDA-MB-435; Homo sapiens, MDA-MB-435, 10 μM, read-out: Percentage growth inhibition (GI%)): 31%
Growth Percent (MDA-MB-435): 69.59%
inhibition at 10 µM (M14; Homo sapiens, M14, 10 μM, read-out: Percentage growth inhibition (GI%)): 63%
Growth Percent (M14): 37.25%
inhibition at 10 µM (SK-MEL-2; Homo sapiens, SK-MEL-2, 10 μM, read-out: Percentage growth inhibition (GI%)): 25%
Growth Percent (SK-MEL-2): 75.95%
inhibition at 10 µM (SK-MEL-28; Homo sapiens, SK-MEL-28, 10 μM, read-out: Percentage growth inhibition (GI%)): 31%
Growth Percent (SK-MEL-28): 69.29%
inhibition at 10 µM (UACC-257; Homo sapiens, UACC-257, 10 μM, read-out: Percentage growth inhibition (GI%)): 39%
Growth Percent (UACC-257): 61.43%
inhibition at 10 µM (SK-MEL-5; Homo sapiens, SK-MEL-5, 10 μM, read-out: Percentage growth inhibition (GI%)): 59%
Growth Percent (SK-MEL-5): 41.63%
inhibition at 10 µM (UACC-62; Homo sapiens, UACC-62, 10 μM, read-out: Percentage growth inhibition (GI%)): 37%
Growth Percent (UACC-62): 63.91%
Growth Percent (MALME-3M): 90.58%
inhibition at 10 µM (MALME-3M; [1]): 10%
Growth Percent (EKVX): 41.42%
inhibition at 10 µM (EKVX; [1]): 59%
Growth Percent (NCI-H322M): 64.44%
inhibition at 10 µM (NCI-H322M; [1]): 36%
inhibition at 10 µM (NCI-H522; Homo sapiens, NCI-H522, 10 μM, read-out: Percentage growth inhibition (GI%)): 72%
Growth Percent (NCI-H522): 28.48%
inhibition at 10 µM (NCI-H460; Homo sapiens, NCI-H460, 10 μM, read-out: Percentage growth inhibition (GI%)): 52%
Growth Percent (NCI-H460): 48.67%
inhibition at 10 µM (NCI-H23; Homo sapiens, NCI-H23, 10 μM, read-out: Percentage growth inhibition (GI%)): 53%
Growth Percent (NCI-H23): 47.63%
Growth Percent (HOP-62): 67.99%
inhibition at 10 µM (HOP-62; Homo sapiens, HOP-62, 10 μM, read-out: Percentage growth inhibition (GI%)): 33%
inhibition at 10 µM (NCI-H226; Homo sapiens, NCI-H226, 10 μM, read-out: Percentage growth inhibition (GI%)): 42%
Growth Percent (NCI-H226): 58.09%
Growth Percent (A549/ATCC): 42.47%
inhibition at 10 µM (A549/ATCC; [1]): 58%
Growth Percent (HOP-92): 68.79%
inhibition at 10 µM (HOP-92; Homo sapiens, HOP-92, 10 μM, read-out: Percentage growth inhibition (GI%)): 32%
inhibition at 10 µM (SF-268; Homo sapiens, SF-268, 10 μM, read-out: Percentage growth inhibition (GI%)): 26%
Growth Percent (SF-268): 74.51%
Growth Percent (CCRF-CEM): 42.94%
inhibition at 10 µM (CCRF-CEM; [1]): 58%
inhibition at 10 µM (K-562; Homo sapiens, K562, K-562, 10 μM, read-out: Percentage growth inhibition (GI%)): 68%
Growth Percent (K-562): 32.55%
Growth Percent (SR): 36.30%
inhibition at 10 µM (SR; [1]): 64%
inhibition at 10 µM (TK-10; Homo sapiens, TK-10, 10 μM, read-out: Percentage growth inhibition (GI%)): 24%
Growth Percent (TK-10): 76.66%
inhibition at 10 µM (UO-31; Homo sapiens, UO-31, 10 μM, read-out: Percentage growth inhibition (GI%)): 45%
Growth Percent (UO-31): 55.08%
Growth Percent (786-0): 77.34%
inhibition at 10 µM (786-0; Homo sapiens, 786-0, 10 μM, read-out: Percentage growth inhibition (GI%)): 23%
Growth Percent (A498): 52.08%
inhibition at 10 µM (A498; Homo sapiens, A498, 10 μM, read-out: Percentage growth inhibition (GI%)): 48%
Growth Percent (SN12C): 67.99%
inhibition at 10 µM (SN12C; [1]): 33%
inhibition at 10 µM (RXF 393; Homo sapiens, RXF 393, 10 μM, read-out: Percentage growth inhibition (GI%)): 15%
Growth Percent (RXF 393): 85.91%
